Measured values from PubChem BioAssay AID2060900 (Molecular Pharmacology Branch, DTP, NCI, 2025).

Test system: 521955-158-R2-J5-PDC complex spheroids, viability
Experiment: Anticancer human tumor 521955-158-R2-J5-PDC patient-derived pancreatic carcinoma cell line growth inhibition [RAS]
Details: for IC50: curve of first compound; for viability, T/C: stronger effect = lower value
From the text: RAS pathway inhibitors in Combinations in Complex Spheroids
A high-throughput screen of multi-cell type tumor spheroids was designed to identify active combinations of RAS pathway inhibitors and targeted small molecules. Complex spheroids include a stromal component modeled by human endothelial cells (HUVEC) and fibroblasts modeled by human mesenchymal stem cells (MSCs). The concentration ranges selected for each drug and investigational agent were based upon clinically achievable concentrations if the clinical Cmax of the agent was known.
Compounds. The drugs and investigational agents: abemaciclib (NSC768073), cobimetinib (NSC768068), divarasib (GDC6063, NSC841802), docetaxel (NSC628503), GDC-1971 (RLY-1971, NSC841576), gemcitabine (NSC613327), inavolisib (NSC800729), ipatasertib (NSC767898), KB-0742 (NSC834161), MRTX-1133 (NSC836407), osimertinib (NSC779217), RMC-4630 (NSC839698), RMC-6236 (NSC851965), RMC-6291 (NSC852671), Ro-3306 (NSC812927), sapanisertib (NSC764658), SN-38 (NSC673596), staurosporine (NSC755774), SY5609 (NSC837396), and tovorafenib (DAY101, NSC766906), were obtained from the National Cancer Institute (NCI) Developmental Therapeutics Program Chemical Repository. The FDA-approved anticancer drug set is available from the NCI Developmental Therapeutics Program. […] The stock solutions were prepared in dimethyl sulfoxide (DMSO, Sigma-Aldrich, St. Louis, MO, cat. D2650) at 800-fold the tested concentration and stored at -70 degrees C prior to their use. All drugs and investigational agents were tested over a range starting from a high concentration at or near the clinical Cmax and decreasing in half-log increments. If the clinical Cmax for an agent had not been determined, the highest concentration tested was 10 microM.
Cell Culture. All cells were maintained in an incubator at 37 degrees C and 5% CO2 with 95% humidity. The PDC lines were cultured according to standard operating procedures established by the NCI PDMR. All PDCs were thawed and cultured in Matrigel-coated flasks prepared with a working solution of 1X Ham's F-12 nutrient mix, without supplementation (Invitrogen, Waltham, MA, cat. 11765054), 100 U/mL penicillin-streptomycin (Invitrogen, cat. 15140122), and 2.5% Matrigel (Corning Inc., Corning, NY, cat. 354248) for the first three passages. The 362531-283-R-J2-PDC and 782815-120-R-J1-PDC lines were cultured in 6C/Colon 1B media, which includes advanced DMEM/F-12 (Thermo Fisher Scientific, cat. 12634028), 10 mM HEPES (Thermo Fisher Scientific, cat. 15630080), 1X GlutaMAX supplement (Thermo Fisher Scientific, cat. 35050061), 0.1 mg/mL primocin (InvivoGen, San Diego, CA, cat. ant-pm-2), 10% defined fetal bovine serum, heat inactivated (HyClone Laboratories Inc., Logan, UT, cat. SH30070.03HI), 50% L-WRN conditioned media (ATCC, cat. CRL-3276), 1.25 mM N-Acetyl-L-cysteine (Sigma-Aldrich, cat. A9165), 10 mM nicotinamide (Sigma-Aldrich, cat. N0636), 1X B-27 supplement (Thermo Fisher Scientific, cat. 17504044), 1X N-2 supplement (Thermo Fisher Scientific, cat. 17502048), 50 ng/mL human EGF (Thermo Fisher Scientific, cat. PHG0311), and 10 microM Y-27632 dihydrochloride (Tocris Bioscience, cat. 1254). The K12877-001-R-J1-PDC line was cultured in 6I media, which includes all 6C/Colon 1B media plus 10 ng/mL human FGF-10 (PeproTech, cat. 100-26), 1 ng/mL human FGF-2 (PeproTech, cat. 100-18B), 1 µM prostaglandin E2 (Tocris Bioscience, cat. 2296), […] hydrocortisone (Sigma-Aldrich, cat. H4001), and […] bovine insulin (Sigma-Aldrich, cat. I6634). The K86415-001-R-J1-PDC line was cultured in 6D media, which includes all 6C/Colon 1B media components minus the L-WRN conditioned media. The 485176-168-R4-J1-PDC was cultured in PANC media, which includes all 6C/Colon 1B media plus 100 ng/mL human FGF-10 (PeproTech, cat. 100-26), 500 nM SB-431542 (Selleckchem, cat. S1067), and 10 nM gastrin (Tocris Bioscience, cat. 3006). […]
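Further: compound exposure lasted seven days before the viability read.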
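Wherever viability, T/C is given: spheroids also contain HUVEC endothelial cells and mesenchymal stem cells as stroma.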

For `C[C@@H](NC(=O)c1ncnc(N)c1Cl)c1ncc(C(=O)Nc2cc(C(F)(F)F)c(Cl)cn2)s1` + C#Cc1c(F)ccc2cc(O)cc(-c3ncc4c(N5CC6CCC(C5)N6)nc(OCC56CCCN5CC(F)C6)nc4c3F)c12, the IC50 (second compound 0.0316 µM) was greater than 10000 nM, the IC50 (second compound 0.1 µM) was 531 nM and the IC50 (second compound 0.316 µM) was 3290 nM. The IC50 (second compound 1 µM) was 493 nM, the IC50 (second compound 3.16 µM) was less than 31.6 nM and the IC50 (second compound 10 µM) was less than 31.6 nM. The viability, T/C (second compound 0.0316 µM, first compound 0.0316 µM) was 57.8%, the viability, T/C (second compound 0.0316 µM, first compound 0.1 µM) was 58.3% and the viability, T/C (second compound 0.0316 µM, first compound 0.316 µM) was 59.8%. The viability, T/C (second compound 0.0316 µM, first compound 1 µM) was 54.3%, the viability, T/C (second compound 0.0316 µM, first compound 3.16 µM) was 57.4% and the viability, T/C (second compound 0.0316 µM, first compound 10 µM) was 46%. The viability, T/C (second compound 0.1 µM, first compound 0.0316 µM) was 65.5%, the viability, T/C (second compound 0.1 µM, first compound 0.1 µM) was 58.3% and the viability, T/C (second compound 0.1 µM, first compound 0.316 µM) was 46.9%. For the same compound, the viability, T/C (second compound 0.1 µM, first compound 1 µM) was 47.3%, the viability, T/C (second compound 0.1 µM, first compound 3.16 µM) was 57.2% and the viability, T/C (second compound 0.1 µM, first compound 10 µM) was 42.3%. The viability, T/C (second compound 0.316 µM, first compound 0.0316 µM) was 62%, the viability, T/C (second compound 0.316 µM, first compound 0.1 µM) was 55.7% and the viability, T/C (second compound 0.316 µM, first compound 0.316 µM) was 58.4%. For the same compound, the viability, T/C (second compound 0.316 µM, first compound 1 µM) was 53.2%, the viability, T/C (second compound 0.316 µM, first compound 3.16 µM) was 52.4% and the viability, T/C (second compound 0.316 µM, first compound 10 µM) was 37.9%. For the same compound, the viability, T/C (second compound 1 µM, first compound 0.0316 µM) was 61.2%, the viability, T/C (second compound 1 µM, first compound 0.1 µM) was 48.4% and the viability, T/C (second compound 1 µM, first compound 0.316 µM) was 47.5%. It also gave a viability, T/C (second compound 1 µM, first compound 1 µM) of 51%, a viability, T/C (second compound 1 µM, first compound 3.16 µM) of 45.3% and a viability, T/C (second compound 1 µM, first compound 10 µM) of 33.5%. It also gave a viability, T/C (second compound 3.16 µM, first compound 0.0316 µM) of 51.3%, a viability, T/C (second compound 3.16 µM, first compound 0.1 µM) of 49.1% and a viability, T/C (second compound 3.16 µM, first compound 0.316 µM) of 36.6%. It also gave a viability, T/C (second compound 3.16 µM, first compound 1 µM) of 54.4%, a viability, T/C (second compound 3.16 µM, first compound 3.16 µM) of 43.5% and a viability, T/C (second compound 3.16 µM, first compound 10 µM) of 32.7%. The viability, T/C (second compound 10 µM, first compound 0.0316 µM) was 41.1%, the viability, T/C (second compound 10 µM, first compound 0.1 µM) was 38.2% and the viability, T/C (second compound 10 µM, first compound 0.316 µM) was 37.3%. The viability, T/C (second compound 10 µM, first compound 1 µM) was 37.5%, the viability, T/C (second compound 10 µM, first compound 3.16 µM) was 35.1% and the viability, T/C (second compound 10 µM, first compound 10 µM) was 22.8%.
